Earlier results in patent US10052341B2, “Method for preparing an anthelmintic composition, anthelmintic composition, veterinary treatment method and anthelmintic treatment method” (OURO FINO SAUDE ANIMAL PARTICIPACOES SA, priority 2013, dated 2018).

Details: pH 5

| Compound | Water-solubility [µg/mL] |
| --- | --- |
| CCC[S+]([O-])c1ccc2[nH]c(NC(=O)OC)nc2c1 (centres unmarked) [albendazole sulfoxide] | 67 |
| CCCSc1ccc2nc(NC(=O)OC)[nH]c2c1 [albendazole] | 0.53 |
